Active and inactive are the calls of the source. The rule behind the calls is not given here.
Columns and labels:
[1] = Inhibition of recombinant Cathepsin L-like protease in african green monkey Vero E6 cells incubated for 2 hrs by pull down assay; type: cell-based, Chlorocebus aethiops
[2] = test system: Vero E6; experiment: Binding affinity to Cathepsin L-like protease in african green monkey Vero E6 cells incubated for 2 hrs by mass spectrometric analysis; type: cell-based; details: Chlorocebus aethiops
[3] = test system: Vero E6; experiment: Binding affinity to Cathepsin L-like protease in african green monkey Vero E6 cells incubated for 2 hrs by Western blot analysis; type: cell-based; details: Chlorocebus aethiops
[4] = Inhibition of human recombinant Cathepsin L-like protease using Z-FR-AMC as substrate preincubated for 30 mins followed by substrate addition and measured after 1.5 hrs by fluorescence based analysis
[5] = target: T1, Cathepsin L2 (Homo sapiens) (UniProt O60911); experiment: Inhibition of Cathepsin V (unknown origin) at 10 uM relative to control
T1 sequence (whole entry): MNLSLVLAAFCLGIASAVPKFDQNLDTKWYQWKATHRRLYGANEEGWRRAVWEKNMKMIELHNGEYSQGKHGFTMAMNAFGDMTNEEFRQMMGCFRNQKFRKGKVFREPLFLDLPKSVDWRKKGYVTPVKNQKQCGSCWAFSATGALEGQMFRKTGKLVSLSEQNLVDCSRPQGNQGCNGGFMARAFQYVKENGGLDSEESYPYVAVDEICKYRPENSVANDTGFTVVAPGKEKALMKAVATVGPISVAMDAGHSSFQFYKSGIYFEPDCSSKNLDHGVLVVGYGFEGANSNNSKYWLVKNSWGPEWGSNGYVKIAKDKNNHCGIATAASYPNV

[6] = target: Transmembrane protease serine 2 (Homo sapiens) (UniProt O15393); experiment: Inhibition of human recombinant TMPRSS2 using Boc-QAR-AMC as substrate at 10 uM preincubated for 30 mins followed by substrate addition and measured after 1.5 hrs by fluorescence based analysis relative to control; details: time 2.0 hrs
Sequence of Transmembrane protease serine 2 (Homo sapiens) (O15393 1-255 limits assumed): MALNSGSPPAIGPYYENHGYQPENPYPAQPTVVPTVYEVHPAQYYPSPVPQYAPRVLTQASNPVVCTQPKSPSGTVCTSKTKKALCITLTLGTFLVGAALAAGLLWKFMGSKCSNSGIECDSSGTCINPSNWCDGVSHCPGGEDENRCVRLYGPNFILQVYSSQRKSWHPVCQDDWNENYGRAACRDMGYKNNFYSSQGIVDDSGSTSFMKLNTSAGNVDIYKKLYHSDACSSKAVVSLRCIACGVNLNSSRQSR
Sequence of Transmembrane protease serine 2 (Homo sapiens) (O15393 256-492 limits assumed): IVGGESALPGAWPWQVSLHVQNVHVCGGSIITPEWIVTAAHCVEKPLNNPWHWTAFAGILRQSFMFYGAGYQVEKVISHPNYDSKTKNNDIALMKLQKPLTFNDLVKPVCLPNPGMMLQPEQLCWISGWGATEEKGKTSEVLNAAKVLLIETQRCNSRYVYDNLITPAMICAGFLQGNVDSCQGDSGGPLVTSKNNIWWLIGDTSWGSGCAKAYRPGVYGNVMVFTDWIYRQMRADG

[7] = test system: Severe acute respiratory syndrome coronavirus 2; experiment: Inhibition of recombinant SARS-Cov-2 Cathepsin L-like protease by LC-MS/MS analysis
[8] = target: T2, Cathepsin L2 (Homo sapiens, UniProt O60911); experiment: Binding affinity to Cathepsin V (unknown origin) assessed as inhibition constant by Morrison equation based analysis
T2 sequence (O60911 whole entry): T1 sequence (whole entry)

[9] = test system: SARS-CoV-2; type: functional, organism-based; details: Severe acute respiratory syndrome coronavirus 2; Vero E6; time 12.0 hrs
[10] = target: Transmembrane protease serine 2 (Homo sapiens) (UniProt O15393); experiment: Inhibition of human recombinant TMPRSS2 using Boc-QAR-AMC as substrate at 10 uM preincubated for 30 mins followed by substrate addition and measured after 1.5 hrs by fluorescence based analysis; details: time 2.0 hrs
[11] = target: Replicase polyprotein 1ab (Severe acute respiratory syndrome coronavirus 2) (UniProt P0DTD1); experiment: Inhibition of recombinant SARS-CoV-2 3CLpro using MCA-AVLQSGFR-Lys(Dnp)-Lys-NH2 as substrate at 10 uM incubated for 1.5 hrs by fluorescence based analysis
[12] = target: Replicase polyprotein 1ab (Severe acute respiratory syndrome coronavirus 2, UniProt P0DTD1); experiment: Inhibition of recombinant SARS-CoV-2 3CLpro using MCA-AVLQSGFR-Lys(Dnp)-Lys-NH2 as substrate incubated for 1.5 hrs by fluorescence based analysis
[13] = target: Chymotrypsin (Homo sapiens) (UniProt Q99895+P17538+P40313+Q6GPI1); experiment: Inhibition of human Chymotrypsin at 10 uM relative to control; type: protein assay
[14] = Binding affinity to human recombinant Cathepsin L-like protease using Z-FR-AMC as substrate assessed as inhibition constant preincubated for 30 mins followed by substrate addition and measured after 1 hr by Morrison equation based analysis
[15] = target: Trypsin (Homo sapiens) (UniProt P07477+P07478+P35030); experiment: Inhibition of human trypsin at 10 uM relative to control; type: protein assay
[16] = target: Replicase polyprotein 1ab (Severe acute respiratory syndrome coronavirus 2) (UniProt P0DTD1); experiment: Inhibition of SARS-CoV2 PLpro using Z-RLRGG-AMC as substrate at 10 uM preincubated for 30 mins followed by substrate addition and measured after 1.5 hrs by fluorescence based analysis; details: time 2.0 hrs
[17] = target: T3, Cathepsin B (Homo sapiens, UniProt P07858); experiment: Inhibition of Cathepsin B (unknown origin) at 10 uM relative to control
[18] = test system: SARS-CoV-2; experiment: microbe, parasite or virus in culture; details: Severe acute respiratory syndrome coronavirus 2, WIV04, Vero C1008
Description: Antiviral activity against SARS-CoV-2 WIV04 infected in African green monkey Vero E6 pre-infected with cells for 1 hr followed by compound treatment and measured after 24 hrs by qRT-PCR analysis

[19] = test system: Vero E6; experiment: Inhibition of Procathepsin L in african green monkey Vero E6 cells by LC-MS/MS analysis; type: cell-based; details: Chlorocebus aethiops
[20] = target: T3, Cathepsin B; experiment: Binding affinity to Cathepsin B (unknown origin) assessed as inhibition constant by Morrison equation based analysis
[21] = species on record: Homo sapiens; experiment: Inhibition of human recombinant Cathepsin L-like protease using Z-FR-AMC as substrate at 10 uM preincubated for 30 mins followed by substrate addition and measured after 1.5 hrs by fluorescence based analysis; details: time 2.0 hrs
[22] = Cytotoxicity against african green monkey Vero E6 cells assessed as cell viability incubated for 48 hrs by CCK-8 assay; type: toxicity, cell-based, Vero C1008; details: chlorocebus sabaeus
[23] = Inhibition of human recombinant Cathepsin L-like protease using Z-FR-AMC as substrate at 10 uM preincubated for 30 mins followed by substrate addition and measured after 1.5 hrs by […]
[24] = species on record: Homo sapiens; experiment: Inhibition of human recombinant Cathepsin L-like protease using Z-FR-AMC as substrate at 1 uM preincubated for 30 mins followed by substrate addition and measured after 1.5 hrs by fluorescence based analysis; details: time 2.0 hrs

| Compound | IC50 [4] [nM] | IC50 [12] [nM] | EC50 [18] [nM] | CC50 at 48 h [22] [nM] | IC50 [23] [nM] | further results |
| --- | --- | --- | --- | --- | --- | --- |
| C#CCCCCOc1ccc(/C=C/C(=O)N[C@@H](CC(C)C)C(=O)N[C@H](C=O)Cc2ccccc2)cc1 | 40.8 | – | – | – | – | EC50 [1]: 6210 nM; Activity [2]: Active; Activity [3]: Active |
| CC(C)C[C@H](NC(=O)/C=C/c1ccccc1)C(=O)N[C@H](C=O)Cc1ccccc1 | 22.6 | > 10000 | 310 | > 100000 | – | inhibition [5]: inactive; inhibition [6]: 100%; inhibition [7]: Active; Ki [8]: 2.25 nM; Activity [9]: Active; inhibition [10]: inactive; inhibition [11]: inactive; inhibition [13]: inactive; Ki [14]: 1.31 nM; inhibition [15]: inactive; inhibition [16]: inactive; inhibition [17]: inactive; inhibition [19]: Active; Ki [20]: 40.1 nM; inhibition [21]: Active |
| O=C(N[C@@H](Cc1ccc(F)cc1)C(=O)N[C@@H](Cc1ccccc1)C(=O)CCl)c1cccc2ccccc12 | – | – | 260 | – | 0.27 | inhibition [5]: inactive; Activity [9]: Active; inhibition [13]: inactive; inhibition [15]: inactive; inhibition [17]: inactive |
| CC(C)C[C@H](NC(=O)/C=C/c1ccccc1)C(=O)N[C@H](C=O)C[C@@H]1CCCNC1=O | – | – | 1510 | > 100000 | – | – |
| CC(C)C[C@H](NC(=O)/C=C/c1ccccc1)C(=O)N[C@H](C=O)C[C@@H]1CCNC1=O | – | – | – | > 100000 | – | – |
| COC(=O)[C@H](Cc1ccccc1)NC(=O)[C@H](CC(C)C)NC(=O)/C=C/c1ccccc1 | – | > 10000 | > 100000 | > 100000 | – | – |
| CC(C)C[C@@H](NC(=O)/C=C/c1ccccc1)C(=O)N[C@H](C=O)Cc1ccccc1 | > 1000 | > 10000 | – | – | – | inhibition [24]: inactive |
| O=C(N[C@@H](Cc1ccccc1)C(=O)N[C@@H](Cc1ccccc1)C(=O)CCl)c1cccc2ccccc12 | – | – | 400 | – | 0.41 | – |
| O=C(N[C@@H](Cc1ccc(F)cc1)C(=O)N[C@@H](Cc1ccccc1)C(=O)CCl)c1ccc2[nH]ccc2c1 | – | – | 410 | – | 0.56 | – |
| O=C(N[C@@H](Cc1cccc(F)c1)C(=O)N[C@@H](Cc1ccccc1)C(=O)CCl)c1ccc2[nH]ccc2c1 | – | – | 1750 | – | 0.72 | – |
| O=C(N[C@@H](Cc1cccc(F)c1)C(=O)N[C@@H](Cc1ccccc1)C(=O)CCl)c1cccc2ccccc12 | – | – | – | – | 1.34 | – |
| C#CCCCCOc1ccc(/C=C/C(=O)N[C@@H](CC(C)C)C(=O)N[C@@H](Cc2ccccc2)C(=O)OC)cc1 | – | > 10000 | > 100000 | > 100000 | – | – |
| O=C(N[C@@H](Cc1ccccc1)C(=O)N[C@@H](Cc1ccccc1)C(=O)CCl)c1ccc2[nH]ccc2c1 | – | – | – | – | 0.8 | – |
| O=C[C@H](Cc1ccccc1)NC(=O)[C@H](Cc1ccc(Cl)cc1)NC(=O)/C=C/c1ccccc1 | 8.91 | > 10000 | – | – | – | – |
| CC[C@H](C)[C@H](NC(=O)/C=C/c1ccccc1)C(=O)N[C@H](C=O)Cc1ccccc1 | 170 | > 10000 | – | – | – | – |
